Data as given in US20240425490A1, “SULFAMIDE RIBONUCLEOTIDE REDUCTASE (RNR) INHIBITORS AND USES THEREOF” (Boundless Bio, Inc., priority 2021, published 2024).

Target: T1, RNR (RNR1:RNR2 1:1) (Homo sapiens, UniProt P23921)
T1 sequence (P23921 1-792): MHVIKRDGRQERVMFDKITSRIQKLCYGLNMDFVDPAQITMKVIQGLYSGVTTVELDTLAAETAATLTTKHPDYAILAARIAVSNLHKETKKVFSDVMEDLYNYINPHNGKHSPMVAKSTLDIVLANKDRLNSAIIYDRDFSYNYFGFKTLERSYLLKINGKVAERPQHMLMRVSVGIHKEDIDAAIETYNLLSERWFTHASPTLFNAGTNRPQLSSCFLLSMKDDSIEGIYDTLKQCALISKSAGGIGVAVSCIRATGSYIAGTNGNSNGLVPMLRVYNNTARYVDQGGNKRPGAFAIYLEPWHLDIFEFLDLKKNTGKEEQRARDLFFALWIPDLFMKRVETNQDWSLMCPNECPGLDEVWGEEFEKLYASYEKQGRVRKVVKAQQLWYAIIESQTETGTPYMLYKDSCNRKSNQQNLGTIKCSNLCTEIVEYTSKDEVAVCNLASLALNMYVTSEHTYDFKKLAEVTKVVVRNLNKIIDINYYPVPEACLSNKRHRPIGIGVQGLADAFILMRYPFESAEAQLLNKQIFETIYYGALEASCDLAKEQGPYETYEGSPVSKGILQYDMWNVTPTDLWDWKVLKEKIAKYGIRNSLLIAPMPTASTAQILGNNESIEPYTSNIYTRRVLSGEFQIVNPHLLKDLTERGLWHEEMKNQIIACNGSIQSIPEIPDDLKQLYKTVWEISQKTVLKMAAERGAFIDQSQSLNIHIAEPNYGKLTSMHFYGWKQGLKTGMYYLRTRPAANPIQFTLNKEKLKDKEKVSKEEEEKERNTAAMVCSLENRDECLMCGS
Assay: RNR enzyme activity, rapid-fire mass spectrometry (RFMS) assay
Type: biochemical
Settings: RNR 50 nM, CDP 5 μM, ATP 1 mM, 37° C., 45 min, compounds screened up to 50 μM, read-out: RF/MS IC50
Method: A rapid-fire mass spectrometry (RFMS) assay was used to assess RNR enzyme activity using a 384 well plate and a robotic platform.
The plate layout included two validated reference compounds (Triapine (3-AP) and Hydroxyurea (HU)): • A dose response in duplicate; top concentration: 5 μM (3-AP) and 250 μM (HU), semi-log dilutions. • Spike wells in triplicate randomly spotted at four concentrations: • 250 μM, 100 μM, 30 μM and 2 μM for HU • 5 μM, 2 μM, 0.6 μM and 0.04 μM for 3-AP
First, the multidrop pipes were saturated for 30 minutes with enzymatic solution. Then 30 μL of Stop solution was distributed in column 24. Next, 15 μL of enzyme was distributed in column 1 to 24. Next, a pre-incubation step of 15 minutes at room temperature occurred, followed by distribution of 15 μL of substrate solution (column 1 to 24). Next, the plate was incubated for 45 minutes at 37° C. 30 μL of Stop solution was distributed to columns 1 to 23.
The final parameters for the enzyme reactions were: • Incubation: 37° C., 45 min • [CDP]: 5 μM; [ATP]: 1 mM; [NADPH]: No • [RNR] final: 50 nM with 1:1 (RNR1:RNR2) ratio • Final volume: 30 μL • Stop solution: 6% HCOOH containing 2 μM of 15

Row | Compound | IC50
1 | Cc1ccc(F)c([C@H](C)[C@H](NS(=O)(=O)N2CCCC(C(C)O)C2)c2n[nH]c(=O)o2)c1C (mixture of isomers) [Example 28, rac-N-((1R,2R)-2-(6-fluoro-2,3-dimethylphenyl)-1-(5-oxo-4,5-dihydro-1,3,4-oxadiazol-2-yl)propyl)-3-(1-hydroxyethyl)piperidine-1-sulfonamide] | 10000 to 100000 nM
2 | Cc1ccc(F)c([C@H](C)[C@H](NS(=O)(=O)N2CCC(C(C)(C)C)CC2)c2n[nH]c(=O)o2)c1C [Example 132, 4-(tert-butyl)-N-((1S,2S)-2-(6-fluoro-2,3-dimethylphenyl)-1-(5-oxo-4,5-dihydro-1,3,4-oxadiazol-2-yl)propyl)piperidine-1-sulfonamide] | 1000 to 10000 nM
3 | Cc1ccc(F)c([C@@H](C)[C@H](NS(=O)(=O)N2CCC(S(C)(=O)=O)CC2)c2n[nH]c(=O)o2)c1C [Example 51, N-((1S,2R)-2-(6-fluoro-2,3-dimethylphenyl)-1-(5-oxo-4,5-dihydro-1,3,4-oxadiazol-2-yl)propyl)-4-(methylsulfonyl)piperidine-1-sulfonamide] | 10000 to 100000 nM
4 | Cc1ccc(F)c([C@@H](C)[C@H](NS(=O)(=O)N2CCC(C)CC2C)c2n[nH]c(=O)o2)c1C (stereo partly drawn) [Example 8, N-((1S,2R)-2-(6-fluoro-2,3-dimethylphenyl)-1-(5-oxo-4,5-dihydro-1,3,4-oxadiazol-2-yl)propyl)-2,4-dimethylpiperidine-1-sulfonamide] | 1000 to 10000 nM
5 | CCCCC1CCN(S(=O)(=O)N[C@H](c2n[nH]c(=O)o2)[C@H](C)c2c(F)ccc(C)c2C)CC1 [Example 79, 4-butyl-N-((1S,2R)-2-(6-fluoro-2,3-dimethylphenyl)-1-(5-oxo-4,5-dihydro-1,3,4-oxadiazol-2-yl)propyl)piperidine-1-sulfonamide] | 1000 to 10000 nM
6 | Cc1ccc(F)c([C@H](C)[C@H](NS(=O)(=O)N2CCC(C(F)F)CC2)c2n[nH]c(=O)o2)c1C [Example 44, 4-(difluoromethyl)-N-((1S,2S)-2-(6-fluoro-2,3-dimethylphenyl)-1-(5-oxo-4,5-dihydro-1,3,4-oxadiazol-2-yl)propyl)piperidine-1-sulfonamide] | 1000 to 10000 nM
7 | Cc1ccc(F)c([C@@H](C)[C@H](NS(=O)(=O)N2CCC(C(F)F)CC2)c2n[nH]c(=O)o2)c1C [Example 45, 4-(difluoromethyl)-N-((1S,2R)-2-(6-fluoro-2,3-dimethylphenyl)-1-(5-oxo-4,5-dihydro-1,3,4-oxadiazol-2-yl)propyl)piperidine-1-sulfonamide] | 1000 to 10000 nM
8 | Cc1ccc(F)c(C(C)[C@H](NS(=O)(=O)N2CCCC(N(C)C)C2)c2n[nH]c(=O)o2)c1C (stereo partly drawn) [Example 25, 3-(dimethylamino)-N-((1S)-2-(6-fluoro-2,3-dimethylphenyl)-1-(5-oxo-4,5-dihydro-1,3,4-oxadiazol-2-yl)propyl)piperidine-1-sulfonamide] | 10000 to 100000 nM
9 | Cc1ccc(F)c([C@@H](C)[C@H](NS(=O)(=O)N2CCC(N3CCCC3)CC2)c2n[nH]c(=O)o2)c1C [Example 50, N-((1S,2R)-2-(6-fluoro-2,3-dimethylphenyl)-1-(5-oxo-4,5-dihydro-1,3,4-oxadiazol-2-yl)propyl)-4-(pyrrolidin-1-yl)piperidine-1-sulfonamide] | 10000 to 100000 nM
10 | Cc1ccc(F)c(C(C)[C@H](NS(=O)(=O)N2CCC(C3NC(=O)NC3=O)CC2)c2n[nH]c(=O)o2)c1C (stereo partly drawn) [Example 60, 4-(2,5-dioxoimidazolidin-4-yl)-N-((1S)-2-(6-fluoro-2,3-dimethylphenyl)-1-(5-oxo-4,5-dihydro-1,3,4-oxadiazol-2-yl)propyl)piperidine-1-sulfonamide] | 100 to 1000 nM
11 | Cc1ccc(F)c([C@H](C)[C@H](NS(=O)(=O)N2CCC(c3c[nH]c4ccccc34)CC2)c2n[nH]c(=O)o2)c1C [Example 69, N-((1S,2S)-2-(6-fluoro-2,3-dimethylphenyl)-1-(5-oxo-4,5-dihydro-1,3,4-oxadiazol-2-yl)propyl)-4-(1H-indol-3-yl)piperidine-1-sulfonamide] | 10000 to 100000 nM
12 | CC(=O)NC1CCN(S(=O)(=O)N[C@H](c2n[nH]c(=O)o2)[C@@H](C)c2c(F)ccc(C)c2C)CC1 [Example 30, N-(1-(N-((1S,2S)-2-(6-fluoro-2,3-dimethylphenyl)-1-(5-oxo-4,5-dihydro-1,3,4-oxadiazol-2-yl)propyl)sulfamoyl)piperidin-4-yl)acetamide] | 1000 to 10000 nM
13 | COCC1CCN(S(=O)(=O)N[C@H](c2n[nH]c(=O)o2)[C@H](C)c2c(F)ccc(C)c2C)CC1 [Example 127, N-((1S,2R)-2-(6-fluoro-2,3-dimethylphenyl)-1-(5-oxo-4,5-dihydro-1,3,4-oxadiazol-2-yl)propyl)-4-(methoxymethyl)piperidine-1-sulfonamide] | 100 to 1000 nM
14 | 4-(3-azabicyclo[3.1.0]hexan-3-yl)-N-((1S,2R)-2-(6-fluoro-2,3-dimethylphenyl)-1-(5-oxo-4,5-dihydro-1,3,4-oxadiazol-2-yl)propyl)piperidine-1-sulfonamide [Example 105] | 1000 to 10000 nM

More lines, now with the values ahead:

Row | IC50 | Compound
15 | 100 to 1000 nM | Cc1ccc(F)c(C(C)[C@H](NS(=O)(=O)N2CCC(Cl)(C#N)CC2)c2n[nH]c(=O)o2)c1C (stereo partly drawn) [Example 101, 4-chloro-4-cyano-N-((1S)-2-(6-fluoro-2,3-dimethylphenyl)-1-(5-oxo-4,5-dihydro-1,3,4-oxadiazol-2-yl)propyl)piperidine-1-sulfonamide]
16 | 1000 to 10000 nM | Cc1ccc(F)c([C@H](C)[C@H](NS(=O)(=O)N2CCC3(CCCCC3)CC2)c2n[nH]c(=O)o2)c1C [Example 88, N-((1S,2S)-2-(6-fluoro-2,3-dimethylphenyl)-1-(5-oxo-4,5-dihydro-1,3,4-oxadiazol-2-yl)propyl)-3-azaspiro[5.5]undecane-3-sulfonamide]
17 | 100 to 1000 nM | Cc1ccc(F)c([C@@H](C)[C@H](NS(=O)(=O)N2CCC(Br)CC2)c2n[nH]c(=O)o2)c1C [Example 100, 4-bromo-N-((1S,2R)-2-(6-fluoro-2,3-dimethylphenyl)-1-(5-oxo-4,5-dihydro-1,3,4-oxadiazol-2-yl)propyl)piperidine-1-sulfonamide]
18 | 100 to 1000 nM | Cc1ccc(F)c(C(C)[C@H](NS(=O)(=O)N2CCC3(CCOCC3)CC2)c2n[nH]c(=O)o2)c1C (stereo partly drawn) [Example 91, N-((1S)-2-(6-fluoro-2,3-dimethylphenyl)-1-(5-oxo-4,5-dihydro-1,3,4-oxadiazol-2-yl)propyl)-3-oxa-9-azaspiro[5.5]undecane-9-sulfonamide]
19 | 100 to 1000 nM | Cc1ccc(F)c([C@@H](C)[C@H](NS(=O)(=O)N2CCC3(CCCCC3)CC2)c2n[nH]c(=O)o2)c1C [Example 87, N-((1S,2R)-2-(6-fluoro-2,3-dimethylphenyl)-1-(5-oxo-4,5-dihydro-1,3,4-oxadiazol-2-yl)propyl)-3-azaspiro[5.5]undecane-3-sulfonamide]
20 | 10000 to 100000 nM | Cc1ccc(F)c([C@@H](C)[C@H](NS(=O)(=O)N2CCC3(CCNC3=O)CC2)c2n[nH]c(=O)o2)c1C [Example 59, N-((1S,2R)-2-(6-fluoro-2,3-dimethylphenyl)-1-(5-oxo-4,5-dihydro-1,3,4-oxadiazol-2-yl)propyl)-1-oxo-2,8-diazaspiro[4.5]decane-8-sulfonamide]
21 | 100 to 1000 nM | Cc1ccc(F)c([C@@H](C)[C@H](NS(=O)(=O)N2CCC(C)(C)CC2)c2n[nH]c(=O)o2)c1C [Example 113, N-((1S,2R)-2-(6-fluoro-2,3-dimethylphenyl)-1-(5-oxo-4,5-dihydro-1,3,4-oxadiazol-2-yl)propyl)-4,4-dimethyl piperidine-1-sulfonamide]
22 | 100 to 1000 nM | Cc1ccc(F)c(C(C)[C@H](NS(=O)(=O)N2CCC(Cl)(Cl)C(C)C2)c2n[nH]c(=O)o2)c1C (stereo partly drawn) [Example 99, 4,4-dichloro-N-((1S)-2-(6-fluoro-2,3-dimethylphenyl)-1-(5-oxo-4,5-dihydro-1,3,4-oxadiazol-2-yl)propyl)-3-methylpiperidine-1-sulfonamide]
23 | 1000 to 10000 nM | Cc1ccc(F)c(C(C)[C@H](NS(=O)(=O)N2CCC(C(C)O)CC2)c2n[nH]c(=O)o2)c1C (stereo partly drawn) [Example 32, N-((1S)-2-(6-fluoro-2,3-dimethylphenyl)-1-(5-oxo-4,5-dihydro-1,3,4-oxadiazol-2-yl)propyl)-4-(1-hydroxyethyl)piperidine-1-sulfonamide]
